Laboratory results reported in a melting point compilation (Tetko et al.; mined from patent text by program, amines drawn as free bases though some values may be those of a salt).

First: Oc1cc(I)c(I)cc1O
Second: Oc1nc2cc(Br)c3ccccc3c2nc1O
The melting point of the first is lower: 116 °C for the first, greater than 300 °C for the second.

First: CC(CO)(CO)Nc1ccc([N+](=O)[O-])cc1
Second: CCc1cc(Nc2ccc([N+](=O)[O-])cc2)n2nccc2n1
The melting point of the first is lower: 120 °C for the first, 158 to 160 °C for the second.

First: CC(C)(C)C(=O)Oc1ccc(-c2nnn(C(C(=O)NCC(=O)O)c3ccccc3)n2)cc1 (centres undefined)
Second: CC(C)C(=O)Oc1ccc(C(=O)c2ccc(OC(=O)C(C)C)cc2)cc1
The melting point of the first is lower: 86 to 93 °C for the first, 144 °C for the second.

First: COc1ccc(-c2c(-c3ccncc3)sc3nc(=O)cc(N)n23)cc1
Second: COc1ccc(-n2nc(CCC(=O)N(C)O)cc2-c2ccc(F)cc2)cc1
The melting point of the first is higher: 267 to 271 °C for the first, 151 to 154 °C for the second.

First: CC(=O)NC[C@H]1CN(c2ccc(N3CCC(F)(CI)CC3)c(F)c2)C(=O)O1
Second: COc1ccc(N2CCOCC2)c2sc(NC(=O)N(C)C3CCC(F)(F)CC3)nc12
The melting point of the first is lower: 166 to 168 °C for the first, 189 to 192 °C for the second.

First: CC(C)n1nc(-c2sc(NC(=O)CNCCO)nc2-c2ccccc2)ccc1=O
Second: CCOC(=O)c1cc(C)n(-c2cccc(Br)c2)c1-c1ccccc1
The melting point of the first is higher: 142 to 144 °C for the first, 118 to 119 °C for the second.

First: COc1ccc2cc(C(C)C(O)(P(=O)(O)O)P(=O)(O)O)ccc2c1 (centres undefined)
Second: COc1ccc2c(c1)CCC(C(O)C(=O)O)C2=O (centres undefined)
The melting point of the first is lower: 205 °C for the first, 212 to 214 °C for the second.

Compared with `O=C(O)COc1nc2ccccc2s1`, `N#CCSC(C(=O)O)c1ccccc1` (centres undefined) is lower in melting point: 168 to 170 °C for the first, 110 to 112 °C for the second.

First: Nc1nc2ccccc2n(-c2ccc(Cl)cc2)c1=O
Second: Nc1ncnc2c1c(-c1ccccc1)cn2-c1cccc(O)c1
The melting point of the first is higher: 254 to 255 °C for the first, 227 to 228 °C for the second.

First: CC(=O)c1ccc2c(c1)OC(C(N)=O)CO2 (centres undefined)
Second: O=C1OCCN1N=C1CCOc2ccccc21
The melting point of the first is higher: 212 °C for the first, 105 to 108 °C for the second.

Going from `Cc1ccc(S(N)(=O)=O)cc1Br` to `NS(=O)(=O)c1nnc(NC(=O)c2ccccc2)s1`, the melting point rises from 156 °C to 250 °C.

First: CC(=O)n1ccc2c(I)ncnc21
Second: CCOC(=O)c1cnc(Nc2ccccc2)[nH]c1=O
The melting point of the first is lower: 123 to 124 °C for the first, 267 to 269 °C for the second.

First: CCCCCCCCCCCCCCCCCCNC(=O)OCC(CNS(=O)(=O)CCCI)NC(C)=O (centres undefined)
Second: CCCCCCCCCCCCCCC(=O)NCCCN(C)C
The melting point of the first is higher: 101 to 102 °C for the first, 46 to 48 °C for the second.

Compared with `O=C1C(c2ccccc2)=C(c2ccccc2)C(c2ccccc2)C1c1ccccc1` (centres undefined), `O=C(Nc1ccc(C2=CCN(Cc3ccccc3)CC2)cc1)c1ccccc1-c1ccccc1` is lower in melting point: 162 to 163 °C for the first, 142 °C for the second.

First: CCc1cn(C[C@@H](C)O)c2ccc(F)c(Cl)c12
Second: CCOC(=O)c1c(-c2ccccc2Cl)c2cc(CC)sc2n(C)c1=O
The melting point of the first is lower: 87 to 88 °C for the first, 105 to 106 °C for the second.

Compared with `Cc1cc(-c2nnn(C)n2)cc(C)c1OCCCCc1nccn1C`, `COc1cc(Nc2c(C#N)cnc3sc(CCCCO)cc23)cc(OC)c1OC` is higher in melting point: 100 to 102 °C for the first, 125 to 127 °C for the second.

First: O=[N+]([O-])c1oc2c(ccc3ccccc32)c1-c1ccc(Br)cc1
Second: CC(C)CCc1c(-c2ccc(S(C)(=O)=O)cc2)cnn(-c2cccc(Cl)c2)c1=O
The melting point of the first is higher: 230 to 233 °C for the first, 60 to 65 °C for the second.

Compared with `COC(=O)C[C@H]1[C@H](C(=O)N(C)OC)C(=O)N1C(c1ccccc1)(c1ccccc1)c1ccccc1`, `CN1C(C(=O)Nc2ccccn2)=C(OCOC(=O)c2ccccc2)c2ccccc2S1(=O)=O` is lower in melting point: 168 to 169 °C for the first, 149 to 150 °C for the second.

First: O=c1[nH]c(CCN2CCCC(O)C2)cc2ccccc12 (centres undefined)
Second: O=C1c2ccccc2C(=O)N1CCSCCc1ccco1
The melting point of the first is higher: 192 to 193 °C for the first, 53 to 55 °C for the second.

First: Cc1c(N2C[C@H](C)[C@H](NC(=O)C(F)(F)F)C2)c(F)c(N)c2c(=O)c(C(=O)O)cn(C3CC3)c12 (relative stereo)
Second: COC(=O)C1=C(C)NC(CC(=O)N2CCN(C3CC4CC(=O)CC4C3)CC2)=C(C(=O)OC)C1c1c(Cl)cccc1Cl (centres undefined)
The melting point of the first is higher: 253 to 254 °C for the first, 145 to 155 °C for the second.

Going from `NC(=O)c1ccc(F)c2c1OCC(N(CCCc1c[nH]c3c(F)cc(F)cc13)CC1CC1)C2` (centres undefined) to `CCN(CC)CC=CC(=O)Nc1cc2c(Nc3ccc(F)c(Cl)c3)ncnc2cc1OC1CCCC1`, the melting point falls from 124 °C to 105 °C.

Compared with `CCCc1cc(C(O)=S)cc(N)c1-c1ccccc1`, `COc1ccccc1Oc1cccc(CC(=O)O)c1OC` is lower in melting point: 190 to 191 °C for the first, 121 to 122 °C for the second.

First: O=C(O)C(=O)c1ccc(OCCOC23CC4CC(CC(C4)C2)C3)cc1
Second: C[C@]1(COc2ccc(N3CCN(C(=O)c4ccc(OC(F)(F)F)cc4)CC3)cc2)Cn2cc([N+](=O)[O-])nc2O1
The melting point of the first is lower: 107 to 109 °C for the first, 202 to 203 °C for the second.

First: CC(C)C(O)=C(C#N)C#N
Second: COCCC1(C(=O)N[C@@H](Cc2ccc(-c3c(C(F)(F)F)cc(C)n(C)c3=O)cc2)C(=O)O)CCCC1
The melting point of the first is lower: 92 to 93 °C for the first, 181 to 183 °C for the second.

Going from `COc1ccccc1NC(=O)Nc1nc(Nc2ccc(CC(=O)O)cc2)nc(Nc2ccccc2-c2ccccc2)n1` to `COc1ccc(CN(C)CCCCCc2ccc(NC(=O)c3cccc4c(=O)c5ccccc5[nH]c34)cc2)cc1OC`, the melting point falls from greater than 300 °C to 110 °C.

First: CCCCCCCCCCCCCCC1CC1C(=O)O (centres undefined)
Second: CCCCCCCCCCC(=O)Nc1cc(F)cc2c1OCCC21SC(=O)NC1=O (centres undefined)
The melting point of the first is lower: 62 to 64 °C for the first, 69 to 71 °C for the second.

Compared with `CCOC1CN(Cc2cc(OC)c(OC)c(OC)c2)Cc2cc(OC)c(OCc3ccccc3)cc21` (centres undefined), `COc1cccc(OC)c1C(=O)P(=S)(C(=O)c1c(OC)cccc1OC)c1ccccc1` is higher in melting point: 132 to 133 °C for the first, 155 °C for the second.

Compared with `CCOC(=O)CCC1(NC(=O)c2ccc(Cl)c(Cl)c2)C(=O)N(CCCc2ccccc2)c2ccccc21` (centres undefined), `O=C1C(Cc2ccccc2)C(C(F)(F)F)=Nc2ccccc2N1Cc1ccccc1` (centres undefined) is higher in melting point: 120 to 122 °C for the first, 150 to 151 °C for the second.

Going from `ON=C(c1ccc(CN2CCOCC2)cc1)c1cccc2nc(N[C@@H]3CCc4ccccc43)ccc12` to `C[C@H]([C@H](O)c1ccc2c(c1)OC(c1ccccc1)(c1ccccc1)O2)N1CCC(O)(c2ccccc2)CC1` (relative stereo), the melting point rises from 167 °C to 224 °C.

`CCC(C)n1ncn(-c2ccc(N3CCN(c4ccc(OCC(O)(Cn5cncn5)c5ccc(Cl)cc5Cl)cc4)CC3)cn2)c1=O` (centres undefined) and `CCCCC(=O)Nc1ccc(Cl)c(-n2nc(CCCC)c(Cc3ccc(-c4ccccc4S(=O)(=O)NC(=O)c4ccccc4Cl)cc3F)c2C#N)c1` cannot be ordered by melting point: 144 to 145 °C for the first, greater than 95 °C for the second.

First: CCOC(=O)c1c(N)c(C)nn1C
Second: CCOC(=O)C1=CC(C2CC2)c2nc3cc(F)c(F)cc3nc2C1=O (centres undefined)
The melting point of the first is lower: 55.5 to 56.5 °C for the first, 230 °C for the second.

First: CCOC(=O)CNC(=O)c1ccc(CCC2CNc3nc(N)nc(O)c3C2)s1 (centres undefined)
Second: COC(=O)Nc1cccc(C)c1CNc1cc(C(=O)N(C)C)cc2c1nc(C)n2C
The melting point of the first is lower: 152 to 160 °C for the first, 193 to 195 °C for the second.

First: CS(=O)(=O)N1CCC(NC(=O)Nc2ccc(F)cc2)CC1
Second: CSc1ccc(/C=C/C2=CC(=O)C(C)(C)O2)cc1
The melting point of the first is higher: 186 to 188 °C for the first, 98 to 99.5 °C for the second.

Compared with `Cn1cc(Sc2ccccc2)c(=O)c(-c2cccc(C(F)(F)F)c2)c1`, `N#Cc1c(C(F)(F)F)cc(N(Cc2ccccn2)Cc2ccccn2)cc1C(F)(F)F` is lower in melting point: 164 to 165 °C for the first, 122 °C for the second.

`S=C(NCc1ccccc1)Nc1nccs1` gave a melting point of 165 to 167 °C.
